PMC10627047, “Flavone-based dual PARP-Tubulin inhibitor manifesting efficacy against endometrial cancer” (Journal of Enzyme Inhibition and Medicinal Chemistry, 2023)
Where two headings read alike, the source gives them in different places.

Legend:
Ishikawa cell lines = test: In-vitro cytotoxicity (MTT cell viability assay); type: cell-based; details: Homo sapiens, read-out: IC50 values (Ishikawa cell lines, µM ± SD), in-vitro growth inhibition
Protocol: The cell growth inhibitory effects of the synthesised compounds were evaluated against Ishikawa cell lines. […] Forth, the synthesised compounds bearing a substituted phenyl ring at position 2 of the biaryl arm bearing benzopyrans were profiled for the cytotoxic effects. Noteworthy to mention that diverse substitutions with varied electronic effects viz fluorine (−I, +R), methoxy (−I, +R), and nitro (−I and − R) were made on the phenyl ring (position 2 of benzopyran). Also, the trimethoxy phenyl ring well established as an imperative structural feature of tubulin inhibitors was tethered to the benzopyran scaffold (20, 21).
Ishikawa cells (a human endometrial carcinoma of the epithelial cell) were kindly gifted by Dr. Geetanjali Sachdeva and Dr. Uddhav Chaudhari of National Institute for Research In Reproductive and Child Health (NIRRCH), Mumbai. […] The cells were maintained in RPMI medium supplemented with 10% Foetal bovine serum (FBS) and 100 IU/mL penicillin.
Mitochondrial activity was evaluated by MTT assay.[59] This assay is based on enzymatic reduction of the yellow-colored MTT dye to purple-colored formazan crystals by a variety of mitochondrial and cytosolic enzymes that are operational in viable cells. Briefly, […] (3000 cells/well) were seeded in 100 µL of medium into a 96-well plate and left to settle in a CO2 incubator. […] Then 150 μL of DMSO was added to each well to dissolve the formazan crystals. The optical density (OD) of each well was recorded using a microplate reader at a wavelength of 570 nm. The percentages of cell viability and growth inhibition were calculated according to the following equations. Cell viability (%) = [(OD of treated cells-OD of blank)/(OD of control-OD of blank) ×100].

[1] = Ishikawa cell lines, MTT, 48 h incubation, mean ± SD, at least three experiments

| Compound | IC50 (Ishikawa cell lines; [1]) [µM] | melting point [°C] | IC50 (Ishikawa cell lines; Ishikawa, 48 h) [µM] |
| --- | --- | --- | --- |
| O=c1cc(-c2ccc(F)cc2)oc2cc(-c3ccccc3)ccc12 [Compound 13, 2–(4-fluorophenyl)-7-phenyl-4H-chromen-4-one] | 2.03 ± 1.1 | 193 to 196 | – |
| COc1cc(-c2cc(=O)c3ccc(-c4ccc5[nH]ccc5c4)cc3o2)cc(OC)c1OC [Compound 21, 7-(1H-indol-5-yl)-2–(3,4,5-trimethoxyphenyl)-4H-chromen-4-one] | > 10 | 246 to 250 | – |
| COc1ccc(/C=C\c2cc(OC)c(OC)c(OC)c2)cc1O [Combretastatin, Combretastatin A-4, reference compound] | 4.21 ± 0.78 | – | – |
| COc1ccc(-c2cc(=O)c3ccc(-c4ccoc4)cc3o2)cc1 [Compound 8, 7-(Furan-3-yl)-2–(4-methoxyphenyl)-4H-chromen-4-one] | 3.2 ± 1.04 | 173 to 176 | – |
| COc1ccc(-c2cc(=O)c3ccc(-c4ccccc4)cc3o2)cc1 [Compound 7, 2–(4-methoxyphenyl)-7-phenyl-4H-chromen-4-one] | 6.3 ± 1.08 | 172 to 175 | – |
| O=c1cc(-c2ccccc2)oc2cc(-c3ccc4ncccc4c3)ccc12 [Compound 5, 2-phenyl-7-(quinolin-6-yl)-4H-chromen-4-one] | > 10 | 136 to 140 | – |
| O=c1cc(-c2ccccc2)oc2cc(-c3ccccc3)ccc12 [Compound 1, 2,7-diphenyl-4H-chromen-4-one] | 3 ± 1.09 | 153 to 157 | – |
| O=c1cc(-c2ccc(F)cc2)oc2cc(-c3ccc4[nH]ccc4c3)ccc12 [Compound 18, 2–(4-fluorophenyl)-7-(1H-indol-5-yl)-4H-chromen-4-one] | > 10 | 229 to 232 | – |
| O=c1cc(-c2ccccc2)oc2cc(-c3ccc4[nH]ccc4c3)ccc12 [Compound 6, 7-(1H-indol-5-yl)-2-phenyl-4H-chromen-4-one] | > 10 | 246 to 249 | – |
| O=c1cc(-c2ccccc2)oc2cc(-c3ccc4c(c3)OCCO4)ccc12 [Compound 4, 7–(2,3-dihydrobenzo[b][1,4]dioxin-6-yl)-2-phenyl-4H-chromen-4-one] | > 10 | 181 to 184 | – |
| COc1cc(-c2cc(=O)c3ccc(-c4ccc5ncccc5c4)cc3o2)cc(OC)c1OC [Compound 20, 7-(Quinolin-6-yl)-2–(3,4,5-trimethoxyphenyl)-4H-chromen-4-one] | > 10 | 214 to 217 | – |
| O=c1cc(-c2ccccc2)oc2cc(-c3ccoc3)ccc12 [Compound 2, 7-(Furan-3-yl)-2-phenyl-4H-chromen-4-one] | 1.5 ± 0.67 | 163 to 167 | – |
| O=c1cc(-c2ccc(F)cc2)oc2cc(-c3ccc4c(c3)OCCO4)ccc12 [Compound 16, 7–(2,3-dihydrobenzo[b][1,4]dioxin-6-yl)-2–(4-fluorophenyl)-4H-chromen-4-one] | > 10 | 193 to 196 | – |
| O=c1cc(-c2ccc([N+](=O)[O-])cc2)oc2cc(-c3ccc4[nH]ccc4c3)ccc12 [Compound 19, 7-(1H-indol-5-yl)-2–(4-nitrophenyl)-4H-chromen-4-one] | > 10 | 255 to 258 | – |
| O=c1cc(-c2ccccc2)oc2ccccc12 [X, reference compound] | > 10 | – | – |
| COc1ccc(-c2cc(=O)c3ccc(-c4ccc5[nH]ccc5c4)cc3o2)cc1 [Compound 12, 7-(1H-indol-5-yl)-2–(4-methoxyphenyl)-4H-chromen-4-one] | > 10 | 129 to 132 | – |
| O=c1cc(-c2ccc(F)cc2)oc2cc(-c3ccc4ncccc4c3)ccc12 [Compound 17, 2–(4-fluorophenyl)-7-(quinolin-6-yl)-4H-chromen-4-one] | > 10 | 236 to 240 | – |
| O=C(c1cc(Cc2n[nH]c(=O)c3ccccc23)ccc1F)N1CCN(C(=O)C2CC2)CC1 [Olaparib, reference compound] | – | – | 3.91 ± 1.06 |
| COc1ccc(-c2cc(=O)c3ccc(-c4ccc5ncccc5c4)cc3o2)cc1 [Compound 11, 2–(4-methoxyphenyl)-7-(quinolin-6-yl)-4H-chromen-4-one] | > 10 | 221 to 224 | – |
| COc1ccc(-c2cc(=O)c3ccc(-c4cccs4)cc3o2)cc1 [Compound 9, 2–(4-methoxyphenyl)-7-(thiophen-2-yl)-4H-chromen-4-one] | 3 ± 0.785 | 180 to 184 | – |
| COc1ccc(-c2cc(=O)c3ccc(-c4ccc5c(c4)OCCO5)cc3o2)cc1 [Compound 10, 7–(2,3-dihydrobenzo[b][1,4]dioxin-6-yl)-2–(4-methoxyphenyl)-4H-chromen-4-one] | > 10 | 183 to 186 | – |
| O=c1cc(-c2ccccc2)oc2cc(-c3cccs3)ccc12 [Compound 3, 2-phenyl-7-(thiophen-2-yl)-4H-chromen-4-one] | 2.1 ± 0.89 | 186 to 189 | – |
| O=c1cc(-c2ccc(F)cc2)oc2cc(-c3cccs3)ccc12 [Compound 15, 2–(4-fluorophenyl)-7-(thiophen-2-yl)-4H-chromen-4-one] | 1.5 ± 1.08 | 202 to 205 | – |
